Patent US10906910B2, “Substituted bicyclic pyrimidine compounds with tubulin and multiple receptor inhibition” (Duquesne University of the Holy Spirit, priority 2014, dated 2021)
Counter-ions that a name gives are not always drawn.

Experiments:
PDGFRβ = PDGFRβ (Homo sapiens, UniProt P09619); assay: PDGFRβ kinase inhibition, whole-cell assay; format: cell-based
[1] = test system: βIII-tubulin overexpressing HeLa cell line; assay: HeLa cytotoxicity, βIII-tubulin overexpressing; format: cell-based; conditions: Homo sapiens; βIII-tubulin overexpressing HeLa
wild type HeLa cells = assay: HeLa cytotoxicity, wild type; format: cell-based; conditions: Homo sapiens
A431 cells = assay: A431 cytotoxicity; format: cell-based; conditions: Homo sapiens, A-431
VEGFR2 = VEGFR2 (Homo sapiens, UniProt P35968); assay: VEGFR2 kinase inhibition, whole-cell assay; format: cell-based; conditions: read-out: kinase inhibition IC50 [whole-cell assays] VEGFR2
VEGFR2, sequence (P35968 20-1356, species assumed): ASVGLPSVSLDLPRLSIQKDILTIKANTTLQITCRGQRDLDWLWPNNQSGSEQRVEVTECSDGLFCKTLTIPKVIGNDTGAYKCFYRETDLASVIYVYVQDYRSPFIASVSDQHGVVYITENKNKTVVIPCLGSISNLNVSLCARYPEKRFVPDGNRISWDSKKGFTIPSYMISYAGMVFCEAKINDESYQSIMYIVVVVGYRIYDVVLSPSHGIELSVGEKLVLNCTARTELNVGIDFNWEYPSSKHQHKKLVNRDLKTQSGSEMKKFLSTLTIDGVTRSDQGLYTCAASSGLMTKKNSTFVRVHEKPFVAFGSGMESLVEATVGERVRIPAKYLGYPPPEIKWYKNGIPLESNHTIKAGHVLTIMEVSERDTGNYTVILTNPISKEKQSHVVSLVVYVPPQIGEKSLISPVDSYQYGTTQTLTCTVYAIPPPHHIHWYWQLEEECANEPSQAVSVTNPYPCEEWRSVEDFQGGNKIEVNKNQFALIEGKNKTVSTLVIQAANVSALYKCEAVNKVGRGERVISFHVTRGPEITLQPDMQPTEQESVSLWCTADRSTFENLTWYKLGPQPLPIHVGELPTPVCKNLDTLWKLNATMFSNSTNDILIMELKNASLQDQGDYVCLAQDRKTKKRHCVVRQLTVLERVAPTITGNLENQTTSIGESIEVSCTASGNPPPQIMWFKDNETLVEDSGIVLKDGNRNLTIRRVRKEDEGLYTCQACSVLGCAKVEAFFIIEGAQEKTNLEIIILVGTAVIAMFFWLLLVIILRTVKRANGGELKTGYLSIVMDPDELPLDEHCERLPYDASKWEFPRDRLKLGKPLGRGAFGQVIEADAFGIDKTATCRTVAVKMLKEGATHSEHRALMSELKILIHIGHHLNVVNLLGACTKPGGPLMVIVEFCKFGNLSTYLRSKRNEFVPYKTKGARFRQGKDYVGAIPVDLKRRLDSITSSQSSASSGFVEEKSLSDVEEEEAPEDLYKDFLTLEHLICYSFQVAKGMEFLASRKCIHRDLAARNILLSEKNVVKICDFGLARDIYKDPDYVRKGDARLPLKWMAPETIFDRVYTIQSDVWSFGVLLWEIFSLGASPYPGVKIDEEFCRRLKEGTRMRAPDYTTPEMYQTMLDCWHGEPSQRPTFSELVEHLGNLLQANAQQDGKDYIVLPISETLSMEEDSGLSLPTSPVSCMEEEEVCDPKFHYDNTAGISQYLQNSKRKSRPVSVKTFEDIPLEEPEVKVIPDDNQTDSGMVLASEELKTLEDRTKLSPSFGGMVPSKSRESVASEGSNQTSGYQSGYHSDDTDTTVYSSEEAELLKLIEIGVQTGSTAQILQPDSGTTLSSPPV

bovine brain tubulin = assay: inhibition of tubulin assembly; format: biochemical; conditions: bovine tubulin
EGFR = EGFR (Homo sapiens, UniProt P00533); assay: EGFR kinase inhibition, whole-cell assay; format: cell-based; conditions: read-out: kinase inhibition IC50 [whole-cell assays] EGFR
EGFR, sequence (P00533 25-1210, species assumed): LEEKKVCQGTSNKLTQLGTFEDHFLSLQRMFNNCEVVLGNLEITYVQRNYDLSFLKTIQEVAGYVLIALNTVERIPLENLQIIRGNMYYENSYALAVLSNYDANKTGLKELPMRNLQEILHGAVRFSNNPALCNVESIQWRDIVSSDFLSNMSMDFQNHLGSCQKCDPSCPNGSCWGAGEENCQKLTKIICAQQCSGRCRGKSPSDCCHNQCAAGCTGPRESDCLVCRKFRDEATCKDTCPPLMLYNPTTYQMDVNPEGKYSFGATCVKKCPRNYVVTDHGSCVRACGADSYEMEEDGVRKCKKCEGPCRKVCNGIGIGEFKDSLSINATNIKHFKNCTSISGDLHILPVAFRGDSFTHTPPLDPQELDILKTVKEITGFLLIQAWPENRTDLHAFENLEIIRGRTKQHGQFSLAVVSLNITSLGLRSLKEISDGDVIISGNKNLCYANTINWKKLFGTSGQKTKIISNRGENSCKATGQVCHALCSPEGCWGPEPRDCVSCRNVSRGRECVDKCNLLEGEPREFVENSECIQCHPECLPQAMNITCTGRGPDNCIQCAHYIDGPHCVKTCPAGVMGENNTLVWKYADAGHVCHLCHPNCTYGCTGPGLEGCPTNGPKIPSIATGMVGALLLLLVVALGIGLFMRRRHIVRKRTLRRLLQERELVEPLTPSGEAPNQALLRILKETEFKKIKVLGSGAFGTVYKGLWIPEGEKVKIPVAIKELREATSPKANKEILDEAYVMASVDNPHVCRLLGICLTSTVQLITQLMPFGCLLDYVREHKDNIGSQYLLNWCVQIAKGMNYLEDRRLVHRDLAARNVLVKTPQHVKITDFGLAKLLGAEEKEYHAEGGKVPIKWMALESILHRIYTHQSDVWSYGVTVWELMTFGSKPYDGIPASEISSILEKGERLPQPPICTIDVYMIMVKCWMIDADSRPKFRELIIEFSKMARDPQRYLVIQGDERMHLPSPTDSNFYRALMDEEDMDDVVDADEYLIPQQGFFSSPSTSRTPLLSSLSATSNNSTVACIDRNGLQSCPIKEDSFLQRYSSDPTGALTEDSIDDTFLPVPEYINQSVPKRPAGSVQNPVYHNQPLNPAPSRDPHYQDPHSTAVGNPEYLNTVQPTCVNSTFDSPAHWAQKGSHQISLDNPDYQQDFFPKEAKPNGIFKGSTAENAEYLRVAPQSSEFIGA

[2] = test system: 4T1-Luc2GFP triple negative mouse breast cancer cells; format: in vivo
Experimental: (§1) BALB/c mice were implanted with 7.5 k 4T1-Luc2GFP triple negative mouse breast cancer cells orthotopically into mammary fat pad 4. 7 days after implantation, tumors are visible in over 90% of animals. At day 8 and continuing twice weekly until the experiment end, the MTD of compound 4.HCl (i.e. the hydrochloride salt of compound 4 shown in FIG. 1), determined to be 40 mg/kg, was given IP to tumor-bearing mice; […]; Both drugs were in solvent (5% solutol-15, 5% PharmaSolve in normal saline) and a solvent control group was included in addition to sham injected (untreated) group. Primary tumor volume and animal weights was assessed by calipers throughout the experiment.
On day 40, all animals were injected IV with fluorescently labeled dextran as a marker of vasculature. Tumors were excised and weighed; lungs were excised and evaluated for metastases. […]; large micro metastases (>10 cells with no vasculature) and macrometastases (>10 cells with apparent vasculature) were counted. […]

MTD in mice = conditions: BALB/c, mouse, in vivo, ip
Experimental: as §1

PDGFRβ, sequence (P09619 33-1106, species assumed): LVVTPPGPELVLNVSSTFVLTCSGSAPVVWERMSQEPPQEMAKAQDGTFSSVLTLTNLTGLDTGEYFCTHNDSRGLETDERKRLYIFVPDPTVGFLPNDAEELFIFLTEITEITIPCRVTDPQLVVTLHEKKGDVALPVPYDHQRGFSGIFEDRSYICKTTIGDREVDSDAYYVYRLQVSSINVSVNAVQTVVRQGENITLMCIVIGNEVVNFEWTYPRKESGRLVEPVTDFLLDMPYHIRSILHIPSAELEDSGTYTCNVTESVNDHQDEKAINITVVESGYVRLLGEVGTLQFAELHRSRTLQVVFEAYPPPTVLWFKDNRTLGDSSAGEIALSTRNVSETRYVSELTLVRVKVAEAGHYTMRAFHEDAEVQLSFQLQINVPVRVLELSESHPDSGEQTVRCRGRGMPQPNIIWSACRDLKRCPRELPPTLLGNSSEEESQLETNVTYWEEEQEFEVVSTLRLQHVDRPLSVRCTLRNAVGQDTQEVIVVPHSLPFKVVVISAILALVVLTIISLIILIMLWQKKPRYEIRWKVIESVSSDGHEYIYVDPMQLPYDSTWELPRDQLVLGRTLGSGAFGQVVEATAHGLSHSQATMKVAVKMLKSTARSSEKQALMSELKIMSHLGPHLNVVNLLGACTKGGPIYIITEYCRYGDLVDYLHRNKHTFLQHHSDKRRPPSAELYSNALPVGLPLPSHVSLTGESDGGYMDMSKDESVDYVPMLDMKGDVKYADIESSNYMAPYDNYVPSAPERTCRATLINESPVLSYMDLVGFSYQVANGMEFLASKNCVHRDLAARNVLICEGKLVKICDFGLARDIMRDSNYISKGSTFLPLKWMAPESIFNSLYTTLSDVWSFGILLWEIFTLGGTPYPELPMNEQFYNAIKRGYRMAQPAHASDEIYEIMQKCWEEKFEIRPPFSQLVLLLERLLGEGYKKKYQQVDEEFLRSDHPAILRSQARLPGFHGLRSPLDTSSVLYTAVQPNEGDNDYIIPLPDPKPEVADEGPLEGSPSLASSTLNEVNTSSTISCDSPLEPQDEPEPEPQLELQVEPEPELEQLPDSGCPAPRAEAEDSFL

| potency against PDGFRβ, in words (PDGFRβ) | IC50 (PDGFRβ; whole-cell assay, read-out: kinase inhibition IC50 [whole-cell assays] PDGFRβ) [nM] | IC50 (VEGFR2) [nM] | IC50 (bovine brain tubulin) [nM] | IC50 (EGFR) [nM] | SMILES | IC50 [1] [nM] | IC50 (wild type HeLa cells) [nM] | IC50 (A431 cells) [nM] | 4T1 primary tumor growth (volume) ([2]; 40 mg/kg IP twice weekly from day 8, vs carrier or vs doxorubicin, FIG. 2) | number of lung small micro metastases ([2]; day 40, 1-9 cells without any vasculature, FIG. 5) | lung macrometastases ([2]; day 40, >10 cells with apparent vasculature, FIG. 5) | tumor weight at the end of the experiment ([2]; day 40, FIG. 4) | animal weight ([2]; mouse, in vivo) | MTD (MTD in mice) [mg/kg] |
| --- | --- | --- | --- | --- | --- | --- | --- | --- | --- | --- | --- | --- | --- | --- |
| potencies comparable with DMBI | 7.2 ± 0.9 | 26.7 | > 20000 | 2.6 | COc1ccc(Nc2nc(C)nc3c(Cc4ccccc4)cn(C)c23)cc1 [Compound 3, 7-Benzyl-N-(4-methoxyphenyl)-2,5-dimethyl-5H-pyrrolo[3,2-d]pyrimidin-4-amine] | 5000 | 5000 | 2.3 ± 0.3 |  |  |  |  |  |  |
|  |  |  |  |  | COc1ccc(N(C)c2nc(C)nc3c(Cc4ccccc4)cn(C)c23)cc1 [Compound 4.HCl, 7-Benzyl-N-(4-methoxyphenyl)-N,2,5-trimethyl-5H-pyrrolo[3,2-d]pyrimidin-4-amine] |  |  |  | significantly reduced 4T1 primary growth | reduced the number of lung small micro metastases | none had any lung macrometastases | reduced tumor weight | no change in animal weight | 40 |
